Experiment [1] deals with FasL. Put plainly: FasL expression at the cell surface by flow cytometry, LNCaP cells. The class given is cell-based, human. To be noted: LNCaP prostate cancer cells, 100 μg/ml sequence, 48 h, treated vs control cells. How it is done:
(§1) Cancer cells and PBMCs were seeded in 6 well flat-bottom microplates and were maintained at 37° C. in a 5% CO2 atmosphere. Unless stated otherwise, 2×10^5 cells/ml were incubated for 48 h with 0 μg/ml (control) or 100 μg/ml ([…]) (treated) of the sequences.
(§2) Fas and FasL expression were measured by flow cytometry using anti-Fas FITC-conjugated monoclonal antibodies and anti-FasL PE-conjugated monoclonal antibodies in a FACScalibur Flow Cytometer (Becton Dickinson, San Jose, Calif., USA) using the CELLQuest program (Becton Dickinson).
(§3) Results are expressed as percentage (%) increase in the expression of Fas and of FasL measured on treated cells compared to control cells.
(§4) LNCaP prostate cancer cells are a TGF-beta 1 receptor negative, […], metastatic human solid tumor model.

For experiment [2], the system named is FasL. Put plainly: FasL expression at the cell surface by flow cytometry, T-24 cells. The class given is cell-based, human. To be noted: T-24 bladder cancer cells, 100 μg/ml sequence, 48 h, treated vs control cells. As for the experimental part:
as §1, §2, §3
(§5) T-24 bladder cancer cells are a p53 mutated human cell line T-24 cells (1.0×10^5 cells/ml) were incubated with the 6 base sequences shown in Table 4.

Experiment [3] relates to Fas. Put plainly: Fas expression at the cell surface by flow cytometry, LNCaP cells. The class given is cell-based, human. To be noted: LNCaP prostate cancer cells, 100 μg/ml sequence, 48 h, treated vs control cells. As for the experimental part:
as §1, §2, §3, §4
(A flow cytometer gives signals particle by particle.)

In experiment [4] the test system is Fas. Put plainly: Fas expression at the cell surface by flow cytometry, PBMCs. The class given is cell-based, human. To be noted: 100 μg/ml sequence, 48 h, treated vs control cells. How it is done: (§6) Peripheral blood mononuclear cells (hereinafter, “PBMCs”) were isolated from human blood by Ficoll-Hypaque (Amersham Pharmacia Biotech, Baie d'Urfée, Québec, Canada) density gradient centrifugation.
as §1, §2, §3

The next experiment concerns EAE. As to the kind of experiment: EAE in (SJL/J×PL/J) F1 mice induced with myelin basic protein. To be noted: for efficacy, dose dependence: 1, 10 or 100 mg/kg; for progression of EAE: sequence 1, 10 or 100 mg/kg + anti-Fas antibodies, for 3 days. It is filed as in vivo. How it is done: Female (SJL/J×PL/J) F1 mice are injected subcutaneously in both femoral regions with an emulsion containing 0.5 mg of myelin basic protein (MBP) mixed with complete Freund's adjuvant. After 24 h, 400 ng of Bordetella pertussis toxin is administered intraperitoneally. On the day of onset (day 0), group 1 mice receive saline, group 2 mice receive 1, 10 or 100 mg/kg of SEQ. ID NO:5, group 3 mice receive 1, 10 or 100 mg/kg of SEQ. ID NO:16, group 4 mice receive 1, 10 or 100 mg/kg of SEQ. ID NO:17, group 5 mice receive 1, 10 or 100 mg/kg of SEQ. ID NO: 18, group 6 mice receive anti-Fas antibodies, group 7 mice receive 1, 10 or 100 mg/kg of SEQ. ID NO:5 +anti-Fas antibodies, group 8 mice receive 1, 10 or 100 mg/kg of SEQ. ID NO:16 +anti-Fas antibodies, group 9 receive 1, 10 or 100 mg/kg of SEQ. ID NO:17 +anti-Fas antibodies, group 10 mice receive 1, 10 or 100 mg/kg of SEQ. ID NO: 18 +anti-Fas antibodies for 3 days by intracistemal administration (20 μg/day). In these different groups, anti-Fas antibodies are administered at any dose in the range of about 0.003 to about 0.3 mg/kg. […] The efficacy of the SEQ. ID NO:5, the SEQ. ID NO: 16 and the SEQ. ID NO: 17 is dose-dependent.

Experiment [5] has as its system FasL. Put plainly: FasL expression at the cell surface by flow cytometry, OVCAR-3 cells. The class given is cell-based, human. To be noted: OVCAR-3 ovarian cancer cells, 100 μg/ml sequence, 48 h, treated vs control cells. How it is done: as §1, §2, §3
(§7) OVCAR-3 ovarian cancer cells are a p53 mutated, p21/waf-1/Cip deleted, metastatic human solid tumor model.

Experiment [6] deals with FasL. Put plainly: FasL expression at the cell surface by flow cytometry, Jurkat cells. The class given is cell-based. To be noted: Jurkat human leukemia T cells, 100 μg/ml sequence, 48 h, treated vs control cells. As for the experimental part:
as §1, §2, §3
(§8) Jurkat human leukemia T cells are an atypical multi-drug resistant human suspension tumor cell model.

In experiment [7] the test system is FasL. Put plainly: FasL expression at the cell surface by flow cytometry, SK-OV-3 cells. It is filed as cell-based, human. To be noted: SK-OV-3 ovarian cancer cells, 100 μg/ml sequence, 48 h, treated vs control cells. As for the experimental part:
as §1, §2, §3
(§9) SK-OV-3 ovarian cancer cells are a p53 mutated, p21/waf-1/Cip deleted, p15^ink4B,p16^ink4 deleted metastatic human solid tumor model.

The subject of experiment [8] is Fas. Put plainly: Fas expression at the cell surface by flow cytometry, SK-OV-3 cells. It is filed as cell-based, human. To be noted: SK-OV-3 ovarian cancer cells, 100 μg/ml sequence, 48 h, treated vs control cells. How it is done: as §1, §2, §3, §9
In experiment [9] the test system is FasL. As to the kind of experiment: FasL expression at the cell surface by flow cytometry, UMUC-3 cells. It is filed as cell-based, human. To be noted: UMUC-3 bladder cancer cells, 100 μg/ml sequence, 48 h, treated vs control cells. As for the experimental part: as §1, §2, §3
(§10) UMUC-3 bladder cancer cells are a P-glycoprotein overexpressing human cell line.

In experiment [10] the test system is Fas. As to the kind of experiment: Fas expression at the cell surface by flow cytometry, OVCAR-3 cells. The class given is cell-based, human. To be noted: OVCAR-3 ovarian cancer cells, 100 μg/ml sequence, 48 h, treated vs control cells. As for the experimental part:
as §1, §2, §3, §7

Experiment [11] relates to EL-4 murine T lymphoma cells. As to the kind of experiment: EL-4 murine T lymphoma implanted in C57/BL6 lpr/lpr mice. It is filed as in vivo. To be noted: for efficacy, dose dependence: 1, 10 or 100 mg/kg. How it is done: EL-4 murine T lymphoma cells are implanted into C57/BL6 lpr/lpr (Fas negative mice). The mice are divided into 30 groups of 10 mice. On day 0, group 1 mice receive saline, group 2 mice receive 1, 10 or 100 mg/kg of SEQ. ID NO:5, group 3 mice receive 1, 10 or 100 mg/kg of SEQ. ID NO:16, group 4 receive 1, 10 or 100 mg/kg of SEQ. ID NO:17, group 5 mice receive 1, 10 or 100 mg/kg of SEQ. ID NO: 18, group 6 mice receive anti-Fas antibodies, group 7 mice receive 1, 10 or 100 mg/kg of SEQ. ID NO:5 +anti-Fas antibodies, group 8 mice receive 1, 10 or 100 mg/kg of SEQ. ID NO: 16 +anti-Fas antibodies, group 9 receive 1, 10 or 100 mg/kg of SEQ. ID NO:17 +anti-Fas antibodies, group 10 mice receive 1, 10 or 100 mg/kg of SEQ. ID NO:18 +anti-Fas antibodies. In these different groups, anti-Fas antibodies are administered at any dose in the range of about 0.003 to about 0.3 mg/kg. […] The efficacy of the SEQ. ID NO:5, the SEQ. ID NO: 16 and the SEQ. ID NO: 17 is dose-dependent.

For experiment [12], the system named is FasL. As to the kind of experiment: FasL expression at the cell surface by flow cytometry, PBMCs. To be noted: 100 μg/ml sequence, 48 h, treated vs control cells. It is filed as cell-based, human. As for the experimental part: as §6, §1, §2, §3
Experiment [13] concerns FasL. Put plainly: FasL expression at the cell surface by flow cytometry, MCF-7 cells. It is filed as cell-based, human. To be noted: MCF-7 breast cancer cells, 100 μg/ml sequence, 48 h, treated vs control cells. As for the experimental part: as §1, §2, §3
(§11) MCF-7 human breast cancer cells are a caspase-3 negative, estrogen-dependent human solid tumor model.

Experiment [14] deals with Fas. As to the kind of experiment: Fas expression at the cell surface by flow cytometry, MCF-7 cells. To be noted: MCF-7 breast cancer cells, 100 μg/ml sequence, 48 h, treated vs control cells. It is filed as cell-based, human. As for the experimental part:
as §1, §2, §3, §11

Experiment [15] has as its system Fas. As to the kind of experiment: Fas expression at the cell surface by flow cytometry, T-24 cells. It is filed as cell-based, human. To be noted: T-24 bladder cancer cells, 100 μg/ml sequence, 48 h, treated vs control cells. As for the experimental part: as §1, §2, §3, §5
The test system of experiment [16] is Fas. Put plainly: Fas expression at the cell surface by flow cytometry, UMUC-3 cells. It is filed as cell-based, human. To be noted: UMUC-3 bladder cancer cells, 100 μg/ml sequence, 48 h, treated vs control cells. How it is done:
as §1, §2, §3, §10

Experiment [17] concerns Fas. As to the kind of experiment: Fas expression at the cell surface by flow cytometry, Jurkat cells. The class given is cell-based. To be noted: Jurkat human leukemia T cells, 100 μg/ml sequence, 48 h, treated vs control cells. As for the experimental part:
as §1, §2, §3, §8

The mark [18] stands for this setting: sequence 1, 10 or 100 mg/kg + anti-Fas antibodies, vs all other groups.
Where [19] appears, read: single agent (sequence 1, 10 or 100 mg/kg, or anti-Fas antibodies) vs group 1 (saline).

With GGGAGG [SEQ ID NO:17], the “% INCREASE FasL” value with FasL [1] is 55%; in the experiment with FasL [2], 75%; with FasL [5], 59%; in the experiment with FasL [6], 91%; in the experiment on FasL [7] it was −16%; in the experiment with FasL [9], 106%. Further, the figures for the “% INCREASE FasL” value with FasL [12] and in the experiment on FasL [13] were 356% and 194%, respectively. For the same sequence, the “% INCREASE Fas” value in the experiment on Fas [3] is given as 48%; with Fas [4] it was 266%; in the experiment on Fas [8], −6%; in the experiment with Fas [10], 49%; in the experiment with Fas [14], 127%; with Fas [15], 124%. The figures for the “% INCREASE Fas” value with Fas [16] and with Fas [17] were 39% and 77%, respectively. In addition, the “efficacy, dose dependence” value (with EAE; in experiment [11]) was “dose-dependent” each time. In addition, the “progression of EAE” value in the experiment on EAE was “least progression of EAE”. The results for the tumor mass result in experiment [11] (setting [18]) and in experiment [11] (setting [19]) were “least tumor mass” and “less tumor mass”, respectively.
As to GGGCGG [SEQ ID NO:18], the “% INCREASE FasL” value in the experiment with FasL [1] was determined as 126%; in the experiment on FasL [2], 205%; in the experiment on FasL [5] it was 142%; in the experiment with FasL [6], 356%; in the experiment with FasL [7], 42%; in the experiment on FasL [9], 250%. The “% INCREASE FasL” value amounted to 850% in the experiment with FasL [12] and 322% in the experiment with FasL [13]. The “% INCREASE Fas” value with Fas [3] is recorded as 55%; in the experiment with Fas [4], 523%; in the experiment with Fas [8], 29%; with Fas [10], 65%; in the experiment on Fas [14], 165%; with Fas [15], 139%. For the same sequence, the results for the “% INCREASE Fas” value in the experiment on Fas [16] and in the experiment with Fas [17] were 72% and 208%, respectively. Further, in the experiment with EAE, the “progression of EAE” value was “least progression of EAE”. For the same sequence, the tumor mass result is “least tumor mass” in experiment [11] (setting [18]) and “less tumor mass” in experiment [11] (setting [19]).
Turning to GGGGGG [SEQ ID NO:16], the “% INCREASE FasL” value with FasL [1] was 13%; in the experiment on FasL [2], −14%; in the experiment with FasL [5] it was 7%; with FasL [6] it was 49%; in the experiment on FasL [7], −28%; in the experiment on FasL [9] it was 10%. Moreover, the “% INCREASE FasL” value in the experiment with FasL [12] turned out to be 42%; with FasL [13] it was 18%. Besides, the “% INCREASE Fas” value with Fas [3] is 6%; with Fas [4] it was 38%; with Fas [8], −14%; with Fas [10], −1%; in the experiment with Fas [14] it was −7%; in the experiment on Fas [15] it was 35%. Moreover, the “% INCREASE Fas” value was −5% in the experiment on Fas [16] and 118% with Fas [17]. For the same sequence, the “efficacy, dose dependence” value (with EAE; in experiment [11]) was “dose-dependent” throughout. For the same sequence, in the experiment with EAE, the “progression of EAE” value is recorded as “least progression of EAE”. In addition, the tumor mass entry in [11] (setting [18]) is listed as “least tumor mass”; in experiment [11] (setting [19]), “less tumor mass”.
